Assay [1] concerns the target T1, G12C-mutant human KRAS (amino acid residues 1-188) (Homo sapiens, UniProt P01116, G12C).
T1 construct: G12D or G12C-mutant human KRAS (amino acid residues 1-188) with FLAG tag; made in house; host or cells: E. coli
Description: KRAS Binding Disruption Assay (AlphaScreen; biotinylated KRpep-2d analogue or RAF1-RBD), G12C. The following applies: geometric mean, read-out: KRAS GMean IC50 (uM) MUTATION: G12C. In short, it runs like this:
(§1)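 Displacement format with mutant KRAS, biotinylated KRpep-2d analogue or RAF1-RBD (5-20 nM each) at pH 7.5 with 5 mM MgCl2.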
(In Alpha technology, singlet oxygen from a donor bead excites a nearby acceptor bead.)

Assay [2] deals with T2, G12D-mutant human KRAS (amino acid residues 1-188) (Homo sapiens, UniProt P01116, G12D).
T2 construct: G12D or G12C-mutant human KRAS (amino acid residues 1-188) with FLAG tag; made in house; host or cells: E. coli
T2 sequence (P01116 1-188 isoform P01116-2 G12D): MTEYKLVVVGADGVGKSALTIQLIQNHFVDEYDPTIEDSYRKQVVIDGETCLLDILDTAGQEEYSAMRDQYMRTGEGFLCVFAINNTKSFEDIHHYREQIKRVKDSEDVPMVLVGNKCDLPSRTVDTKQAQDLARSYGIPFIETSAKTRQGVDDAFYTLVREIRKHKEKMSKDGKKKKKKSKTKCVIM
Description: KRAS Binding Disruption Assay (AlphaScreen; biotinylated KRpep-2d analogue or RAF1-RBD), G12D. The note with it: KRAS G12D; geometric mean; read-out: KRAS GMean IC50 (uM) MUTATION: G12D. In short, it runs like this:
as §1

T1 sequence (P01116 1-188 isoform P01116-2 G12C): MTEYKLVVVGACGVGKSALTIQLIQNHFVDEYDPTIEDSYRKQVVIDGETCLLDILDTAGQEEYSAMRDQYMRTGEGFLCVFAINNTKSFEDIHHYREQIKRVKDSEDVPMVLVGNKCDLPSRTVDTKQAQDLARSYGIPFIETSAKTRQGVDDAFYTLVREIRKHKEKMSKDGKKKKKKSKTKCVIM

`CC(=O)NCCOc1nc(N2C[C@H]3CC[C@@H](C2)N3)c2ccc(-c3cc(O)cc4ccccc34)c(F)c2n1` [P-0692, N-(2-((4-((1R,5S)-3,8-diazabicyclo[3.2.1]octan-3-yl)-8-fluoro-7-(3-hydroxynaphthalen-1-yl)quinazolin-2-yl)oxy)ethyl)acetamide]: the IC50 (as a rule, the concentration at which inhibition is half-maximal) in assay [1] lay in the range of 10 to 100 µM; in assay [2], 0.0001 to 10 µM.

Turning to `O=C1CCCN1CCOc1nc(N2C[C@H]3CC[C@@H](C2)N3)c2ccc(-c3cc(O)cc4ccccc34)c(F)c2n1` [P-0693, 1-(2-((4-((1R,5S)-3,8-diazabicyclo[3.2.1]octan-3-yl)-8-fluoro-7-(3-hydroxynaphthalen-1-yl)quinazolin-2-yl)oxy)ethyl)pyrrolidin-2-one], the IC50 in assay [1] lay within 10 to 100 µM; in assay [2], 0.0001 to 10 µM.

Take `O=C1CCC(=O)N1CCOc1nc(N2C[C@H]3CC[C@@H](C2)N3)c2ccc(-c3cc(O)cc4ccccc34)c(F)c2n1` [P-0694, 1-(2-((4-((1R,5S)-3,8-diazabicyclo[3.2.1]octan-3-yl)-8-fluoro-7-(3-hydroxynaphthalen-1-yl)quinazolin-2-yl)oxy)ethyl)pyrrolidine-2,5-dione]: the values for the IC50 in assay [1] and in assay [2] were 10 to 100 µM and 0.0001 to 10 µM, respectively.

As to `Oc1cc(-c2ccc3c(N4C[C@H]5CC[C@@H](C4)N5)nc(OCCN4CCOCC4)nc3c2F)c2ccccc2c1` [P-0695, 4-(4-((1R,5S)-3,8-diazabicyclo[3.2.1]octan-3-yl)-8-fluoro-2-(2-morpholinoethoxy)quinazolin-7-yl)naphthalen-2-ol], the IC50 in assay [1] lay within 10 to 100 µM; in assay [2] it was 0.0001 to 10 µM.

With `Oc1cc(-c2ccc3c(N4C[C@H]5CC[C@@H](C4)N5)nc(OCCN4CCCC4)nc3c2F)c2ccccc2c1` [P-0696, 4-(4-((1R,5S)-3,8-diazabicyclo[3.2.1]octan-3-yl)-8-fluoro-2-(2-(pyrrolidin-1-yl)ethoxy)quinazolin-7-yl)naphthalen-2-ol], the IC50 in assay [1] lay in the range of 10 to 100 µM; in assay [2], 0.0001 to 10 µM.

`Fc1c(-c2c[nH]c3cccc(C4CC4)c23)ccc2c(N3C[C@H]4CC[C@@H](C3)N4)nc(OCC34CCCN3CCC4)nc12` [P-0697, 4-((1R,5S)-3,8-diazabicyclo[3.2.1]octan-3-yl)-7-(4-cyclopropyl-1H-indol-3-yl)-8-fluoro-2-((tetrahydro-1H-pyrrolizin-7a(5H)-yl)methoxy)quinazoline]: the IC50 in assay [1] and in assay [2] was 0.0001 to 10 µM in each case.

`CCc1cccc2[nH]cc(-c3ccc4c(N5C[C@H]6CC[C@@H](C5)N6)nc(OCC56CCCN5CCC6)nc4c3)c12` [P-0698, 4-((1R,5S)-3,8-diazabicyclo[3.2.1]octan-3-yl)-7-(4-ethyl-1H-indol-3-yl)-2-((tetrahydro-1H-pyrrolizin-7a(5H)-yl)methoxy)quinazoline]: the values for the IC50 in assay [1] and in assay [2] were 10 to 100 µM and 0.0001 to 10 µM, respectively.

As to `CCc1cccc2[nH]cc(-c3ccc4c(N5C[C@H]6CC[C@@H](C5)N6)nc(OCC56CCCN5CCC6)nc4c3F)c12` [P-0699, 4-((1R,5S)-3,8-diazabicyclo[3.2.1]octan-3-yl)-7-(4-ethyl-1H-indol-3-yl)-8-fluoro-2-((tetrahydro-1H-pyrrolizin-7a(5H)-yl)methoxy)quinazoline], the IC50 in assay [1] and in assay [2] was 0.0001 to 10 µM in each case.

`Clc1cccc2[nH]cc(-c3ccc4c(N5C[C@H]6CC[C@@H](C5)N6)nc(OCC56CCCN5CCC6)nc4c3)c12` [P-0700, 4-((1R,5S)-3,8-diazabicyclo[3.2.1]octan-3-yl)-7-(4-chloro-1H-indol-3-yl)-2-((tetrahydro-1H-pyrrolizin-7a(5H)-yl)methoxy)quinazoline]: the figures for the IC50 in assay [1] and in assay [2] were 10 to 100 µM and 0.0001 to 10 µM, respectively.

Take `Oc1cc(-c2ccc3c(N4C[C@H]5CC[C@@H](C4)N5)nc(NCC4CCOCC4)nc3c2F)c2ccccc2c1` [P-0701, 4-(4-((1R,5S)-3,8-diazabicyclo[3.2.1]octan-3-yl)-8-fluoro-2-(((tetrahydro-2H-pyran-4-yl)methyl)amino)quinazolin-7-yl)naphthalen-2-ol]: the IC50 in assay [1] is 100 to 1000 µM; in assay [2], 0.0001 to 10 µM.

With `CS(=O)(=O)NC1CN(c2nc(N3C[C@H]4CC[C@@H](C3)N4)c3ccc(-c4cc(O)cc5ccccc45)c(F)c3n2)C1` [P-0702, N-(1-(4-((1R,5S)-3,8-diazabicyclo[3.2.1]octan-3-yl)-8-fluoro-7-(3-hydroxynaphthalen-1-yl)quinazolin-2-yl)azetidin-3-yl)methanesulfonamide], the IC50 in assay [1] was 10 to 100 µM; in assay [2] it was 0.0001 to 10 µM.

With `Oc1cc(-c2ccc3c(N4C[C@H]5CC[C@@H](C4)N5)nc(N4CC(N5CCOCC5)C4)nc3c2F)c2ccccc2c1` [P-0703, 4-(4-((1R,5S)-3,8-diazabicyclo[3.2.1]octan-3-yl)-8-fluoro-2-(3-morpholinoazetidin-1-yl)quinazolin-7-yl)naphthalen-2-ol], the IC50 was 10 to 100 µM in assay [1] and 0.0001 to 10 µM in assay [2].

Take `CN(C)C1CCN(c2nc(N3C[C@H]4CC[C@@H](C3)N4)c3ccc(-c4cc(O)cc5ccccc45)c(F)c3n2)C1` (stereo partly drawn) [P-0704, 4-(4-((1R,5S)-3,8-diazabicyclo[3.2.1]octan-3-yl)-2-(3-(dimethylamino)pyrrolidin-1-yl)-8-fluoroquinazolin-7-yl)naphthalen-2-ol]: the results for the IC50 in assay [1] and in assay [2] were 10 to 100 µM and 0.0001 to 10 µM, respectively.

As for `CN1CCC2CN(c3nc(N4C[C@H]5CC[C@@H](C4)N5)c4ccc(-c5cc(O)cc6ccccc56)c(F)c4n3)CC21` (stereo partly drawn) [P-0705, 4-(4-((1R,5S)-3,8-diazabicyclo[3.2.1]octan-3-yl)-8-fluoro-2-(1-methylhexahydropyrrolo[3,4-b]pyrrol-5(1H)-yl)quinazolin-7-yl)naphthalen-2-ol], the IC50 in assay [1] lay within 10 to 100 µM; in assay [2], 0.0001 to 10 µM.

For `Oc1cc(-c2ccc3c(N4C[C@H]5CC[C@@H](C4)N5)nc(N4CC(O)(C(F)(F)F)C4)nc3c2F)c2ccccc2c1` [P-0706, 1-(4-((1R,5S)-3,8-diazabicyclo[3.2.1]octan-3-yl)-8-fluoro-7-(3-hydroxynaphthalen-1-yl)quinazolin-2-yl)-3-(trifluoromethyl)azetidin-3-ol], the IC50 in assay [1] lay in the range of 100 to 1000 µM; in assay [2] it was 0.0001 to 10 µM.

As to `CCc1c(F)ccc2[nH]cc(-c3ccc4c(N5C[C@H]6CC[C@@H](C5)N6)nc(OCC56CCCN5CCC6)nc4c3F)c12` [P-0709, 4-((1R,5S)-3,8-diazabicyclo[3.2.1]octan-3-yl)-7-(4-ethyl-5-fluoro-1H-indol-3-yl)-8-fluoro-2-((tetrahydro-1H-pyrrolizin-7a(5H)-yl)methoxy)quinazoline], the IC50 in assay [1] and in assay [2] was 0.0001 to 10 µM throughout.

In the case of `CCc1c(F)ccc2[nH]cc(-c3c(F)cc4c(N5C[C@H]6CC[C@@H](C5)N6)nc(OCC56CCCN5CCC6)nc4c3F)c12` [P-0710, 4-((1R,5S)-3,8-diazabicyclo[3.2.1]octan-3-yl)-7-(4-ethyl-5-fluoro-1H-indol-3-yl)-6,8-difluoro-2-((tetrahydro-1H-pyrrolizin-7a(5H)-yl)methoxy)quinazoline], the IC50 in assay [1] and in assay [2] was 0.0001 to 10 µM throughout.

`FC(F)(F)c1cccc2[nH]cc(-c3ccc4c(N5C[C@H]6CC[C@@H](C5)N6)nc(OCC56CCCN5CCC6)nc4c3)c12` [P-0711, 4-((1R,5S)-3,8-diazabicyclo[3.2.1]octan-3-yl)-2-((tetrahydro-1H-pyrrolizin-7a(5H)-yl)methoxy)-7-(4-(trifluoromethyl)-1H-indol-3-yl)quinazoline]: the IC50 in assay [1] and in assay [2] was 0.0001 to 10 µM in each case.

With `Cc1cccc2[nH]nc(-c3ccc4c(N5C[C@H]6CC[C@@H](C5)N6)nc(OC[C@@H]5CCCN5C)nc4c3F)c12` [P-0712, 4-((1R,5S)-3,8-diazabicyclo[3.2.1]octan-3-yl)-8-fluoro-7-(4-methyl-1H-indazol-3-yl)-2-(((S)-1-methylpyrrolidin-2-yl)methoxy)quinazoline], the IC50 in assay [1] and in assay [2] was 10 to 100 µM throughout.

Take `Oc1cc(-c2ccc3c(N4C[C@H]5CC[C@@H](C4)N5)nc(OCCN4CCC4)nc3c2F)c2ccccc2c1` [P-0713, 4-(2-(2-(azetidin-1-yl)ethoxy)-4-((1R,5S)-3,8-diazabicyclo[3.2.1]octan-3-yl)-8-fluoroquinazolin-7-yl)naphthalen-2-ol]: the IC50 in assay [1] is 10 to 100 µM; in assay [2], 0.0001 to 10 µM.

As to `Oc1cc(-c2ccc3c(N4C[C@H]5CC[C@@H](C4)N5)nc(OC[C@@H]4CCCN4)nc3c2F)c2ccccc2c1` [P-0714, 4-(4-((1R,5S)-3,8-diazabicyclo[3.2.1]octan-3-yl)-8-fluoro-2-(((S)-pyrrolidin-2-yl)methoxy)quinazolin-7-yl)naphthalen-2-ol], the IC50 in assay [1] was in the range of 10 to 100 µM; in assay [2] it was 0.0001 to 10 µM.

As to `Cc1ncoc1COc1nc(N2C[C@H]3CC[C@@H](C2)N3)c2ccc(-c3cc(O)cc4ccccc34)c(F)c2n1` [P-0715, 4-(4-((1R,5S)-3,8-diazabicyclo[3.2.1]octan-3-yl)-8-fluoro-2-((4-methyloxazol-5-yl)methoxy)quinazolin-7-yl)naphthalen-2-ol], the IC50 in assay [1] and in assay [2] was 10 to 100 µM in each case.

Consider `Oc1cc(-c2ccc3c(N4C[C@H]5CC[C@@H](C4)N5)nc(OCc4cnco4)nc3c2F)c2ccccc2c1` [P-0716, 4-(4-((1R,5S)-3,8-diazabicyclo[3.2.1]octan-3-yl)-8-fluoro-2-(oxazol-5-ylmethoxy)quinazolin-7-yl)naphthalen-2-ol], for which the IC50 lay within 10 to 100 µM in assay [1] and 0.0001 to 10 µM in assay [2].

Consider `CC(=O)NC(C)(C)COc1nc(N2C[C@H]3CC[C@@H](C2)N3)c2ccc(-c3cc(O)cc4ccccc34)c(F)c2n1` [P-0717, N-(1-((4-((1R,5S)-3,8-diazabicyclo[3.2.1]octan-3-yl)-8-fluoro-7-(3-hydroxynaphthalen-1-yl)quinazolin-2-yl)oxy)-2-methylpropan-2-yl)acetamide], for which the IC50 in assay [1] was 10 to 100 µM; in assay [2], 0.0001 to 10 µM.

The values above are taken from patent publication US20230081426A1, “COMPOUNDS AND METHODS FOR KRAS MODULATION AND INDICATIONS THEREFOR” (Plexxikon Inc., priority 2020, published 2023).
